Results published in BindingDB's records for doi:10.1021/bi00118a023 (University of Akron, 1992).

Biological target: T1, Bifunctional aspartokinase/homoserine dehydrogenase 1 (Escherichia coli (strain K12), UniProt P00561)
T1 sequence (P00561 whole entry): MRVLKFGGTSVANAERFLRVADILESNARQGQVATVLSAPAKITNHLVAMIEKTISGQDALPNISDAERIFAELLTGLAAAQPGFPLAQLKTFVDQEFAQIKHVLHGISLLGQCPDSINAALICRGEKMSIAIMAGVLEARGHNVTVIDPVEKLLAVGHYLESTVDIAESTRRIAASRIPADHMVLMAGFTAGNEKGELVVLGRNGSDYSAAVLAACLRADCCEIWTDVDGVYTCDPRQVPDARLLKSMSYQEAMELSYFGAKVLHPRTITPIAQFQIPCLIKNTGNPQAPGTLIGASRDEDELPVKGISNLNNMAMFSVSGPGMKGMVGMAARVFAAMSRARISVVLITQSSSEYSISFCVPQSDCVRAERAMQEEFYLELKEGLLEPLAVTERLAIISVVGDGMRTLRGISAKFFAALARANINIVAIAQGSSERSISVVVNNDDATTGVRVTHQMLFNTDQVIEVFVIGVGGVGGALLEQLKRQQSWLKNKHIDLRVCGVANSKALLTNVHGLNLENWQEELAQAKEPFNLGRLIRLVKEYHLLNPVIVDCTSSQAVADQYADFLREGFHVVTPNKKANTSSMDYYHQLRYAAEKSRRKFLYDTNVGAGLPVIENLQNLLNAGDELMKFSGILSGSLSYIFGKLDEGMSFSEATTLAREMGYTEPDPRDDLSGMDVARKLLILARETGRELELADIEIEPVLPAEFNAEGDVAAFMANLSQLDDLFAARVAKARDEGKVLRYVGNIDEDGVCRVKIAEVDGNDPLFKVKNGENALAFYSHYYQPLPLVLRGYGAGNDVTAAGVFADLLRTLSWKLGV
Experiment: Inhibition Assay
Excerpt: Analogues of L-aspartic acid and beta-aspartyl phosphate were examined as inhibitors in the aspartokinase I reaction by using the coupled reaction with ASA-DH.

| Ki [mM] | SMILES |
| --- | --- |
| 23 | NC(C(=O)O)C(=O)O [Aminomalonate] |
| 3.1 | CCC[C@H](N)C(=O)O [L-Norvaline] |
| 6 | N[C@@H](CCOP(=O)(O)O)C(=O)O [Homoserine phosphate] |
| 10 | NCC[C@H](N)C(=O)O [2,4-Diaminobutanoate] |
| 11 | N[C@@H](CC(=O)O)C(=O)OCc1ccccc1 [D-aspartate alpha-benzyl ester] |
| 24 | COC(=O)CC[C@H](N)C(=O)O [L-glutamate gamma-methyl ester] |
| 16 | N[C@@H](CC(=O)NO)C(=O)O [D-aspartate-beta-hydroxamate] |
| 12 | N[C@@H](COP(=O)(O)O)C(=O)O [O-phospho-L-serine] |
| 30 | NCC(O)C(=O)O (racemic) [DL-Isoserine] |
| 45 | NC(CC(=O)O)CC(=O)O [3-Aminoglutarate] |
| 5 | CCC(N)C(=O)O (stereo not given) [2-Aminobutyrate] |
| 32 | CC(C)[C@H](N)C(=O)O [L-Valine] |
| 38 | N[C@@H](CCC(=O)O)C(=O)O [L-Glutamic acid] |
| 99 | C[C@H](N)C(=O)O [L-alanine] |
| 39 | NC(=O)C[C@@H](N)C(=O)O [D-asparagine] |
| 71 | COC(=O)C[C@H](N)C(=O)OC [L-Aspartic dimethyl ester] |

| SMILES | Ki [mM] |
| --- | --- |
| NC(CCP(=O)(O)O)C(=O)O (stereo not drawn) [DL-2-amino-4-phosphonobutyrate] | 61 |
| CCCC[C@H](N)C(=O)O [L-norleucine] | 24 |
| N[C@@H](CN(O)N=O)C(=O)O [L-Alanosine] | 7.5 |
| NC(CCCP(=O)(O)O)C(=O)O (stereo not drawn) [DL-2-Amino-5-phosphonovalerate] | 8.4 |
